Experimental data from patent publication US20260294906A1, “TREATING PSORIASIS USING A SMALL MOLECULE INHIBITOR OF TUMOR NECROSIS FACTOR ALPHA” (SANOFI, priority 2023, published 2026).
“Also recorded” adds a separate entry of the source.

Assay: Plasma levels of Compound 1 in the study population (pharmacokinetics)
Format: in vivo, human
Details: 200 mg BID oral, fed
Procedure: The primary objective of the study was to assess the safety, tolerability, and clinical efficacy of Compound 1 at 200 mg BID via oral administration. Also evaluated was the clinical effect of Compound 1 as compared to placebo on the percent change in PASI and TLS scores from baseline to week 2 and week 4. The percent change in PASI score from baseline to week 4 was determined. TLS score was also assessed over the same time period. Also assessed was the effect of Compound 1 on biomarkers of psoriasis. Blood samples collected at predetermined time points were processed to quantify serum levels of biomarkers, including interleukin (IL)-17A, IL-17F, and IL-22 by high sensitivity methods. IL-17A, IL-17F and IL-22 are the main cytokines released by Th17 cells. Plasma levels of Compound 1 were measured to assess pharmacokinetics in the study population.
Two study interventions were used, Compound 1 and placebo. The Compound 1 intervention comprised 4× tablets of Compound 1 50 mg twice daily, i.e. 200 mg BID, for 4 weeks. The placebo intervention was 4× tablets of placebo twice daily for 4 weeks. Tablets were administered orally.
The interventions were used in two arms of the study. Arm 1 was the experimental arm and it involved participants receiving 200 mg of Compound BID for 4 weeks under fed conditions. […]

## CN1C(=O)c2cccc(OC(F)F)c2[C@H]2C[C@@H]1c1nc3ccc(-c4cnc(C5(N)CCC5)nc4)cc3n12 [Compound 1, (7R,14R)-11-[2-(1-aminocyclobutyl)pyrimidin-5-yl]-1-(difluoromethoxy)-6-methyl-6,7-dihydro-7,14-methanobenzimidazo[1,2-b][2,5]benzodiazocin-5(14H)-one]
Day 8 through Day 29
  Mean pre-dose plasma levels / steady state (in words): steady state was achieved within the first week and maintained until the end of the treatment
Compared with previous study in healthy participants
  Mean pre-dose and post-dose plasma concentrations (in words): consistent with analogous values observed at the same dose in a previous study in healthy participants; also recorded: consistent with pharmacokinetic data previously obtained in healthy participants
